From patent US20250144067A1, “PERSONALIZED STARVATION THERAPY FOR CANCER” (Faeth Therapeutics, Inc., priority 2021, published 2025)
Numbered stars: 1 amine (or outer) side, 2 acyl side, 3 side chain; on linkers, the order of the positions; unused ones are H or OH. Bridge positions count the residues as written; N and C are the ends. Square brackets hold non-standard residues; d marks the D form. Peptide text beside a SMILES is read from it. * marks the point of attachment. hTyr(3S-OH,4S-OH,3'-OSO3H) = N[C@H](C(=O)O)[C@H](O)[C@@H](O)c1ccc(O)c(OS(=O)(=O)O)c1; Orn(4R-OH,5R-OH) = O=C([C@H](C[C@@H](O)[C@@H](O)N[*:3])N[*:1])[*:2]; Pro(3S-OH,4S-Me) = C[C@H]1CN[C@H](C(=O)O)[C@H]1O; X1 = CCCCCOc1ccc(-c2cc(-c3ccc(C(=O)*)cc3)no2)cc1; Gln(3R-OH) = NC(=O)C[C@@H](O)[C@H](N)C(=O)O; Hyp = O=C(O)[C@@H]1C[C@@H](O)CN1

What was measured:
[1] = tested on: NCI-H292 lung cancer cells; experiment: FDA drug screening, complete media vs cholesterol-free media with simvastatin (TABLE 2); format: cell-based, human; settings: for Cholesterol-free media + simvastatin (0.04 μM) / Complete Media: NCI-H292 cells
[2] = tested on: NCI-H292 lung cancer cells; experiment: FDA drug screening, complete media vs cholesterol-free media without statin (TABLE 1); format: cell-based, human
[3] = drug in cholesterol-free media with simvastatin 0.04 μM
[4] = complete media vs cholesterol-free media + simvastatin (0.04 μM), >0 enhanced anti-cancer activity, about 0 neutral, <0 antagonist
[5] = NCI-H292 cells, cholesterol-free media without statin, FDA drug library screen
[6] = NCI-H292 cells, complete media, FDA drug library screen
[7] = complete vs cholesterol-free media, >0 enhanced anti-cancer activity, about 0 neutral, <0 antagonist
[8] = cholesterol-free media with simvastatin 0.04 μM, cell growth value in FDA drug screen
[9] = complete media, cell growth value in FDA drug screen
[10] = complete media minus cholesterol-free media + simvastatin, >0 enhanced anti-cancer activity, about 0 neutral, <0 antagonist
[11] = Complete minus Cholesterol-free, >0 enhanced anti-cancer activity, about 0 neutral, <0 antagonist
[12] = NCI-H292 cells, cholesterol-free media without statin
[13] = FDA drug library screen, cholesterol-free media with simvastatin 0.04 μM
[14] = FDA drug library screen, complete media
[15] = cholesterol-free media with simvastatin 0.04 μM, FDA drug library screen (TABLE 2)
[16] = complete media, FDA drug library screen (TABLE 2)
[17] = complete media minus cholesterol-free media + simvastatin (0.04 μM), >0 enhanced anti-cancer activity, about 0 neutral, <0 antagonist
[18] = Complete minus Cholesterol-free, greater than 0 enhanced anti-cancer activity, about 0 neutral, below 0 antagonist
[19] = NCI-H292 cells, FDA drug library screen, cholesterol-free media without statin
[20] = NCI-H292 cells, FDA drug library screen, complete media
[21] = FDA library drug in cholesterol-free media with simvastatin 0.04 μM
[22] = FDA library drug in complete media
[23] = complete media vs cholesterol-free media + simvastatin (0.04 μM), […]
[24] = Complete minus Cholesterol-free, […]

## COC(=O)[C@@H]1CC2=CC(=O)CC[C@]2(C)[C@@]23O[C@@H]2C[C@@]2(C)[C@@H](CC[C@@]24CCC(=O)O4)[C@H]13 [Eplerenone]
[1]; [3]
  Cholesterol-free media + simvastatin (0.04 μM): 1.039
[1]; drug in complete media
  Complete Media: 0.8449
[1]; [4]
  Difference: −0.19
[2]; [5]
  Cholesterol-free: 1.018
[2]; [6]
  Complete: 1.291
[2]; [7]
  Difference: 0.27

## COC[C@H]1C[C@@H](c2nc(-c3ccc4c(c3)COc3cc5c(ccc6nc([C@@H]7CC[C@H](C)N7C(=O)[C@@H](NC(=O)OC)C(C)C)[nH]c65)cc3-4)c[nH]2)N(C(=O)[C@H](NC(=O)OC)c2ccccc2)C1 [Velpatasvir]
[1]; [8]
  Cholesterol-free media + simvastatin (0.04 μM): 0.7455
[1]; [9]
  Complete Media: 0.7768
[1]; [10]
  Difference: 0.03
[2]; [11]
  Difference: −0.30
[2]; [12]
  Cholesterol-free: 1.014
[2]; NCI-H292 cells, complete media
  Complete: 0.7173

## c1ccc(Cc2nc3ccccc3[nH]2)cc1 [Bendazol]
[1]; [13]
  Cholesterol-free media + simvastatin (0.04 μM): 1.208
[1]; [14]
  Complete Media: 1.472
[1]; [10]
  Difference: 0.26
[2]; [5]
  Cholesterol-free: 1.234
[2]; [6]
  Complete: 1.354
[2]; [7]
  Difference: 0.12

## CCC(=O)OCC(=O)[C@@]1(OC(=O)CC)[C@@H](C)C[C@H]2[C@@H]3CCC4=CC(=O)C=C[C@]4(C)[C@@]3(F)[C@@H](O)C[C@@]21C [Betamethasone dipropionate]
[1]; [8]
  Cholesterol-free media + simvastatin (0.04 μM): 0.5238
[1]; [9]
  Complete Media: 0.6181
[1]; [10]
  Difference: 0.09
[2]; [11]
  Difference: −0.28
[2]; [12]
  Cholesterol-free: 0.9149
[2]; NCI-H292 cells, complete media
  Complete: 0.6317

## CN1CCN2c3ncccc3Cc3ccccc3C2C1 (centres unmarked) [Mirtazapine]
[1]; [15]
  Cholesterol-free media + simvastatin (0.04 μM): 0.9802
[1]; [16]
  Complete Media: 0.914
[1]; [17]
  Difference: −0.07
[2]; [18]
  Difference: −0.17
[2]; [19]
  Cholesterol-free: 1.176
[2]; [20]
  Complete: 1.005

## CNC(=C[N+](=O)[O-])NCCSCc1csc(CN(C)C)n1 [Nizatidine]
[1]; [13]
  Cholesterol-free media + simvastatin (0.04 μM): 1.118
[1]; [14]
  Complete Media: 0.9809
[1]; [4]
  Difference: −0.14
[2]; [11]
  Difference: −0.23
[2]; [12]
  Cholesterol-free: 1.253
[2]; NCI-H292 cells, complete media
  Complete: 1.026

## CCCCCOc1ccc(-c2cc(-c3ccc(C(=O)N[C@H]4C[C@@H](O)[C@@H](O)NC(=O)[C@@H]5[C@@H](O)[C@@H](C)CN5C(=O)[C@H]([C@H](O)CC(N)=O)NC(=O)[C@H]([C@H](O)[C@@H](O)c5ccc(O)c(OS(=O)(=O)O)c5)NC(=O)[C@@H]5C[C@@H](O)CN5C(=O)[C@H]([C@@H](C)O)NC4=O)cc3)no2)cc1 [Micafungin (sodium)] (X1-[Orn(4R-OH,5R-OH)]T[Hyp][hTyr(3S-OH,4S-OH,3'-OSO3H)][Gln(3R-OH)][Pro(3S-OH,4S-Me)]; lactam 1-C)
[1]; [21]
  Cholesterol-free media + simvastatin (0.04 μM): 2.204
[1]; [22]
  Complete Media: 1.774
[1]; [23]
  Difference: −0.43
[2]; [5]
  Cholesterol-free: 1.036
[2]; [6]
  Complete: 1.188
[2]; complete vs cholesterol-free media, […]
  Difference: 0.15

## O=C(O)CN(CCN(CC(=O)O)CC(=O)O)CC(=O)O
[1]; [8]
  Cholesterol-free media + simvastatin (0.04 μM): 0.8557
[1]; [9]
  Complete Media: 0.9311
[1]; [10]
  Difference: 0.08
[2]; [11]
  Difference: −0.27
[2]; [12]
  Cholesterol-free: 1.665
[2]; NCI-H292 cells, complete media
  Complete: 1.397

## Inulin
[1]; [3]
  Cholesterol-free media + simvastatin (0.04 μM): 1.179
[1]; drug in complete media
  Complete Media: 0.9318
[1]; [23]
  Difference: −0.25
[2]; [24]
  Difference: −0.02
[2]; [5]
  Cholesterol-free: 0.9221
[2]; [6]
  Complete: 0.9055

## Nc1ccc(S(=O)(=O)Nc2ccc(Cl)nn2)cc1 [Sulfachloropyridazine]
[1]; [15]
  Cholesterol-free media + simvastatin (0.04 μM): 0.9751
[1]; [16]
  Complete Media: 0.932
[1]; [17]
  Difference: −0.04
[2]; [18]
  Difference: −0.17
[2]; [19]
  Cholesterol-free: 1.057
[2]; [20]
  Complete: 0.8847

## NC[C@H](CC(=O)O)c1ccc(Cl)cc1 [(R)-Baclofen]
[1]; [13]
  Cholesterol-free media + simvastatin (0.04 μM): 0.9854
[1]; [14]
  Complete Media: 0.8585
[1]; [23]
  Difference: −0.13
[2]; [24]
  Difference: −0.91
[2]; NCI-H292 cells in cholesterol-free media without statin
  Cholesterol-free: 2.052
[2]; NCI-H292 cells in complete media
  Complete: 1.14

## CCCCC1OC(=O)c2ccccc21 (centres unmarked) [Butylphthalide]
[1]; [3]
  Cholesterol-free media + simvastatin (0.04 μM): 1.292
[1]; drug in complete media
  Complete Media: 1.12
[1]; [4]
  Difference: −0.17
[2]; [5]
  Cholesterol-free: 0.6966
[2]; [6]
  Complete: 1.343
[2]; [7]
  Difference: 0.65

## NC(=O)c1cccnc1 [Nicotinamide]
[1]; [13]
  Cholesterol-free media + simvastatin (0.04 μM): 0.9853
[1]; [14]
  Complete Media: 0.9029
[1]; [4]
  Difference: −0.08
[2]; [18]
  Difference: −0.17
[2]; [19]
  Cholesterol-free: 0.8882
[2]; [20]
  Complete: 0.716

## CC(C)(C)c1nc(-c2cccc(NS(=O)(=O)c3c(F)cccc3F)c2F)c(-c2ccnc(N)n2)s1 [Dabrafenib]
[1]; [15]
  Cholesterol-free media + simvastatin (0.04 μM): 0.7299
[1]; [16]
  Complete Media: 0.7037
[1]; [17]
  Difference: −0.03
[2]; [18]
  Difference: −0.18
[2]; [19]
  Cholesterol-free: 0.7255
[2]; [20]
  Complete: 0.5433

## CC(C)(C)NC(=O)[C@H]1CC[C@H]2[C@@H]3CC[C@H]4NC(=O)C=C[C@]4(C)[C@H]3CC[C@]12C [Finasteride]
[1]; [8]
  Cholesterol-free media + simvastatin (0.04 μM): 1.571
[1]; [9]
  Complete Media: 1.636
[1]; [10]
  Difference: 0.06
[2]; [12]
  Cholesterol-free: 1.209
[2]; NCI-H292 cells, complete media
  Complete: 0.7878
[2]; complete vs cholesterol-free media, greater than 0 enhanced anti-cancer activity, about 0 neutral, below 0 antagonists
  Difference: −0.42

## C[C@H](CCC(=O)O)[C@H]1CC[C@H]2[C@@H]3[C@H](O)C[C@@H]4C[C@H](O)CC[C@]4(C)[C@H]3CC[C@]12C [Chenodeoxycholic Acid]
[1]; [15]
  Cholesterol-free media + simvastatin (0.04 μM): 0.895
[1]; [16]
  Complete Media: 0.9061
[1]; [17]
  Difference: 0.01
[2]; [5]
  Cholesterol-free: 0.7972
[2]; [6]
  Complete: 1.211
[2]; [7]
  Difference: 0.41

## Pyrantel (tartrate)
[1]; [21]
  Cholesterol-free media + simvastatin (0.04 μM): 1.712
[1]; [22]
  Complete Media: 1.209
[1]; [4]
  Difference: −0.50
[2]; [18]
  Difference: −0.17
[2]; [20]
  Complete: 0.9815

## O=C(O)CCn1c2c(c3ccccc31)C[C@H](NS(=O)(=O)c1ccc(F)cc1)CC2 [Ramatroban]
[1]; [13]
  Cholesterol-free media + simvastatin (0.04 μM): 1.061
[1]; [14]
  Complete Media: 0.9101
[1]; [4]
  Difference: −0.15
[2]; [11]
  Difference: −0.25
[2]; [12]
  Cholesterol-free: 0.905
[2]; NCI-H292 cells, complete media
  Complete: 0.6524
